According to patent US11420973B2, “Amide substituted indole compounds useful as TLR inhibitors” (BRISTOL-MYERS SQUIBB COMPANY, priority 2017, dated 2022):
Where a name gives a salt, the structure may show the parent alone. Read-outs that look alike come from different tables or passages of the source.

Experiments:
[1] = molecular target: human TLR7 (Homo sapiens (Human), UniProt Q9NYK1); test: TLR7 inhibition reporter assay (HEK-Blue SEAP reporter, gardiquimod stimulation); assay type: cell-based; settings: HEK-Blue cells overexpressing human TLR7, gardiquimod 7.5 μM
Sequence of human TLR7 (Q9NYK1 27-1049): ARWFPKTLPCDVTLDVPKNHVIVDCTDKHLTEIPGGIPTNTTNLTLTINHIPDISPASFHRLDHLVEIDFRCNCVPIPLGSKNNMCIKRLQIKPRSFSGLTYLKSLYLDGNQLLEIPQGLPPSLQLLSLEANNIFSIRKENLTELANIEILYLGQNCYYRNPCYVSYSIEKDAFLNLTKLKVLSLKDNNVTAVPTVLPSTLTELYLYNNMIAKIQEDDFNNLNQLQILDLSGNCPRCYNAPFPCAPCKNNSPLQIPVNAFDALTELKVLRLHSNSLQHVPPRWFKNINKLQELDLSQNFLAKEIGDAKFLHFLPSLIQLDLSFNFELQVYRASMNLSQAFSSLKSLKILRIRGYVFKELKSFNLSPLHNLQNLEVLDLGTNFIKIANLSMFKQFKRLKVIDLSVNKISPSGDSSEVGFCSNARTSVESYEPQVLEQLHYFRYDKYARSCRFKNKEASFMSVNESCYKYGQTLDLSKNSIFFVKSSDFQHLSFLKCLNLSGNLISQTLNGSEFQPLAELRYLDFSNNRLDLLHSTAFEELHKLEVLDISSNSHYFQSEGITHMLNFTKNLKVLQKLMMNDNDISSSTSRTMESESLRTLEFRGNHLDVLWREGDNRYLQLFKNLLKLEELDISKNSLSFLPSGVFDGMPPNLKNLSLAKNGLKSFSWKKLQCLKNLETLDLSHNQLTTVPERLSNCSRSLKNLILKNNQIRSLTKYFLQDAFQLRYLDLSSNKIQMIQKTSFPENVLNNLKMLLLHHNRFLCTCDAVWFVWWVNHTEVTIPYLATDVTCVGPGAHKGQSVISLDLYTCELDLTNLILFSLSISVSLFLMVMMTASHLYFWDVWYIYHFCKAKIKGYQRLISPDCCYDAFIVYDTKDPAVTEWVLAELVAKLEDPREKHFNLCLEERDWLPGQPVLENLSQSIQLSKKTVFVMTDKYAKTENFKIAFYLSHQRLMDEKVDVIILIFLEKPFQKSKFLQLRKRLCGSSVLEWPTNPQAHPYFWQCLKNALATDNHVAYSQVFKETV

[2] = molecular target: human TLR9 (Homo sapiens (Human), UniProt Q9NR96); test: TLR9 inhibition reporter assay (HEK-Blue SEAP reporter, ODN2006 stimulation);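 further: SEAP reporter under IFN-β minimal promoter with five NF-κB and AP-1 sites, 22 h incubation, compounds 0.05 nM–50 µM, inhibition relative to agonist plus DMSO versus known inhibitor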
Sequence of human TLR9 (Q9NR96 26-1032): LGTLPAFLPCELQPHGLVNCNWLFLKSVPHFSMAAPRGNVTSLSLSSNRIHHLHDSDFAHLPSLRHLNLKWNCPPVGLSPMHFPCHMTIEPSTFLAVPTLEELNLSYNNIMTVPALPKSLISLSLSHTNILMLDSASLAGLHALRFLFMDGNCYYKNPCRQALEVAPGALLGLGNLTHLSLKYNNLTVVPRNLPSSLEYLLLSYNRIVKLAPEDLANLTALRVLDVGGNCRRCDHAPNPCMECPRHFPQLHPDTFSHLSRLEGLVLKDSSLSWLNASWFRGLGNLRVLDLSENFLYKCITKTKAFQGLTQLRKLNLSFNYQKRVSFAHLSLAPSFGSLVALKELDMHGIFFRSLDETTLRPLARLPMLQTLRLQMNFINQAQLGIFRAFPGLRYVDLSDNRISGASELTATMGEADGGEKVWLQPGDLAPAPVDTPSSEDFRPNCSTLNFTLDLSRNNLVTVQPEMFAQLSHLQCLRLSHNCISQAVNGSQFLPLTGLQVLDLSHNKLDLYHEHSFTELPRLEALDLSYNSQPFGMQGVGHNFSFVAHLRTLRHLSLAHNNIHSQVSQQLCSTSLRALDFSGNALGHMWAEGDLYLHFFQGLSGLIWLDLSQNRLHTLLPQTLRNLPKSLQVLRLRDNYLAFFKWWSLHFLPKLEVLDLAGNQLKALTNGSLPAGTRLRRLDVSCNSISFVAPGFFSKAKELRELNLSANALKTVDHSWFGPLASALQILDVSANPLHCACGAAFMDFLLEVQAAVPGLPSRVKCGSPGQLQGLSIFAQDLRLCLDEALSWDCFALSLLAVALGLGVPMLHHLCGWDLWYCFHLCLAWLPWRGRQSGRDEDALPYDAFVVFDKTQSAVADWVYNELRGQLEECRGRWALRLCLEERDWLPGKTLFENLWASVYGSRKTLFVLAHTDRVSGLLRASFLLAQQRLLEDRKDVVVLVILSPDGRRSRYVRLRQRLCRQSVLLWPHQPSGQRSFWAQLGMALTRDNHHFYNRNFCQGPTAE

[3] = molecular target: human TLR8 (Homo sapiens (Human), UniProt Q9NR97); test: TLR8 inhibition reporter assay (HEK-Blue SEAP reporter, R848 stimulation);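 further: SEAP driven by IFN-β minimal promoter with NF-κB and AP-1 sites, 22 h incubation, compounds 0.05 nM–50 µM, inhibition scaled between agonist plus DMSO and reference inhibitor wells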
Sequence of human TLR8 (Q9NR97 27-1041): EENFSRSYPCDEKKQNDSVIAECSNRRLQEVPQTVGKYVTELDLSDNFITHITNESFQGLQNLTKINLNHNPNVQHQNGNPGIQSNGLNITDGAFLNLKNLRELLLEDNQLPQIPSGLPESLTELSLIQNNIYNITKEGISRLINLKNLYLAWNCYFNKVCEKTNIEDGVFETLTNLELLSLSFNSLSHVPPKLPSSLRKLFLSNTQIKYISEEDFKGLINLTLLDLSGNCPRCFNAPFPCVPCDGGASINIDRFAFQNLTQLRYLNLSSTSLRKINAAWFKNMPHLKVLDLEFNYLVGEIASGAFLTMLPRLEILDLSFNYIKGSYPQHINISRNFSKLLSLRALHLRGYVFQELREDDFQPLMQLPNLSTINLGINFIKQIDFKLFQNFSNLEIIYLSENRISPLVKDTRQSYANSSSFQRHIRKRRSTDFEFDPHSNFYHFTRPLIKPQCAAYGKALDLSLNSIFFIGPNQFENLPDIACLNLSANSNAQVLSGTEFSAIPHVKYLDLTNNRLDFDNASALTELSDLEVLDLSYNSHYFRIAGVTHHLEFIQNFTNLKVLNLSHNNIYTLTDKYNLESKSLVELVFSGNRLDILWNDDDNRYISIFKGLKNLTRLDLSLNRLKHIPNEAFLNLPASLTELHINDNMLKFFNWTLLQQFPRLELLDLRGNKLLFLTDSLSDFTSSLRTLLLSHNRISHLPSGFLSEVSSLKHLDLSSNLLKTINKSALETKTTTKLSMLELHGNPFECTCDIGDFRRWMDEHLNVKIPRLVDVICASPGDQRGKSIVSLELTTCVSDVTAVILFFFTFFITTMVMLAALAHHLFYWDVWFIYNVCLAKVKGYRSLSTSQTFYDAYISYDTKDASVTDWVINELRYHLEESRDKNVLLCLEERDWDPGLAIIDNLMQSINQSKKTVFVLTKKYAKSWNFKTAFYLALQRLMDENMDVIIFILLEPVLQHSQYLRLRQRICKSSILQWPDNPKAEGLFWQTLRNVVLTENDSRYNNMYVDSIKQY

[4] = read-out: TLR9 IC50, HEK-Blue cells overexpressing human TLR9, ODN2006 5 nM, SEAP reporter
[5] = read-out: TLR8 IC50, HEK-Blue cells overexpressing human TLR8, R848 15.9 μM, SEAP reporter

`Cc1cc(-c2[nH]c3ccc(C(=O)N(C)Cc4ccccc4)cc3c2C(C)C)cc(C)n1` [Example 99, N-benzyl-2-(2,6-dimethylpyridin-4-yl)-3-isopropyl-N-methyl-1H-indole-5-carboxamide] gave an IC50 [1] of 201 nM, an IC50 [2, 4] of 1830 nM and an IC50 [3, 5] of 481 nM.

`Cc1cc(-c2[nH]c3ccc(C(=O)N(C)Cc4cccnc4)cc3c2C(C)C)cc(C)n1` [Example 100, 2-(2,6-dimethylpyridin-4-yl)-3-isopropyl-N-methyl-N-(pyridin-3-ylmethyl)-1H-indole-5-carboxamide] was tested, and the IC50 [1] was 46 nM, the IC50 [2, 4] was greater than 50000 nM and the IC50 [3, 5] was 320 nM.

With `Cc1cc(-c2[nH]c3ccc(C(=O)N(C)C4CCN(C)CC4)cc3c2C(C)C)cc(C)n1` [Example 101, 2-(2,6-dimethylpyridin-4-yl)-3-isopropyl-N-methyl-N-(1-methylpiperidin-4-yl)-1H-indole-5-carboxamide] the IC50 [1] was 1.9 nM, the IC50 [2, 4] was 776 nM and the IC50 [3, 5] was 0.34 nM.

`Cc1cc(-c2[nH]c3ccc(C(=O)N(C)CCc4ccccc4)cc3c2C(C)C)cc(C)n1` [Example 102, 2-(2,6-dimethylpyridin-4-yl)-3-isopropyl-N-methyl-N-phenethyl-1H-indole-5-carboxamide] showed an IC50 [1] of 185 nM, an IC50 [2, 4] of 5060 nM and an IC50 [3, 5] of 418 nM.

For `Cc1cc(-c2[nH]c3ccc(C(=O)N(C)Cc4cccc(N)c4)cc3c2C(C)C)cc(C)n1` [Example 103, N-(3-aminobenzyl)-2-(2,6-dimethylpyridin-4-yl)-3-isopropyl-N-methyl-1H-indole-5-carboxamide], the IC50 [1] was 54 nM, the IC50 [2, 4] was 27100 nM and the IC50 [3, 5] was 192 nM.

Compound `Cc1cc(-c2[nH]c3ccc(C(=O)N4CCC(N(C)C)CC4)cc3c2C(C)C)cc(C)n1` [Example 104, (4-(dimethylamino)piperidin-1-yl)(2-(2,6-dimethylpyridin-4-yl)-3-isopropyl-1H-indol-5-yl)methanone] has an IC50 [1] of 14 nM, an IC50 [2, 4] of 373 nM and an IC50 [3, 5] of 12 nM.

Work on `Cc1cc(-c2[nH]c3ccc(C(=O)N(C)CCO)cc3c2C(C)C)cc(C)n1` [Example 105, 2-(2,6-dimethylpyridin-4-yl)-N-(2-hydroxyethyl)-3-isopropyl-N-methyl-1H-indole-5-carboxamide] yielded an IC50 [1] of 33 nM, an IC50 [2, 4] of 20800 nM and an IC50 [3, 5] of 59 nM.

`COCCN(C)C(=O)c1ccc2[nH]c(-c3cc(C)nc(C)c3)c(C(C)C)c2c1` [Example 106, 2-(2,6-dimethylpyridin-4-yl)-3-isopropyl-N-(2-methoxyethyl)-N-methyl-1H-indole-5-carboxamide] gave an IC50 [1] of 51 nM, an IC50 [2, 4] greater than 50000 nM and an IC50 [3, 5] of 105 nM.

Work on `Cc1cc(-c2[nH]c3ccc(C(=O)N4CC5CNCC5C4)cc3c2C(C)C)cc(C)n1` (stereo not drawn) [Example 107, (2-(2,6-dimethylpyridin-4-yl)-3-isopropyl-1H-indol-5-yl)(hexahydropyrrolo[3,4-c]pyrrol-2(1H)-yl)methanone, 2 HCl] yielded an IC50 [1] of 73 nM, an IC50 [2] of 264 nM and an IC50 [3] of 58 nM.

Work on `Cc1cc(-c2[nH]c3ccc(C(=O)N4CCNCC4)cc3c2C(C)C)cc(C)n1` [Example 108, (2-(2,6-dimethylpyridin-4-yl)-3-isopropyl-1H-indol-5-yl)(piperazin-1-yl)methanone] yielded an IC50 [1] of 7.3 nM, an IC50 [2, 4] of 247 nM and an IC50 [3, 5] of 1.5 nM.

Work on `Cc1cc(-c2[nH]c3ccc(C(=O)N4CC5CN(C)CC5C4)cc3c2C(C)C)cc(C)n1` (stereo not drawn) [Example 109, (2-(2,6-dimethylpyridin-4-yl)-3-isopropyl-1H-indol-5-yl)(5-methylhexahydropyrrolo[3,4-c]pyrrol-2(1H)-yl)methanone] yielded an IC50 [1] of 18 nM, an IC50 [2, 4] of 116 nM and an IC50 [3, 5] of 2.3 nM.

`Cc1cc(-c2[nH]c3ccc(C(=O)N4CC5CN(C(C)C)CC5C4)cc3c2C(C)C)cc(C)n1` (stereo not drawn) [Example 110, (2-(2,6-dimethylpyridin-4-yl)-3-isopropyl-1H-indol-5-yl)(5-isopropylhexahydropyrrolo[3,4-c]pyrrol-2(1H)-yl)methanone] showed an IC50 [1] of 49 nM, an IC50 [2, 4] of 410 nM and an IC50 [3, 5] of 11 nM.

Compound `Cc1cc(-c2[nH]c3ccc(C(=O)N4CC5CN(C(=O)CN(C)C)CC5C4)cc3c2C(C)C)cc(C)n1` (stereo not drawn) [Example 111, 2-(dimethylamino)-1-(5-(2-(2,6-dimethylpyridin-4-yl)-3-isopropyl-1H-indole-5-carbonyl)hexahydropyrrolo[3,4-c]pyrrol-2(1H)-yl)ethanone] has an IC50 [1] of 171 nM, an IC50 [2, 4] of 668 nM and an IC50 [3, 5] of 74 nM.

With `Cc1cc(-c2[nH]c3ccc(C(=O)N4CC5CNCC5C4)cc3c2C(C)C)ccn1` (stereo not drawn) [Example 112, (hexahydropyrrolo[3,4-c]pyrrol-2(1H)-yl)(3-isopropyl-2-(2-methylpyridin-4-yl)-1H-indol-5-yl)methanone, HCl] the IC50 [1] was 335 nM, the IC50 [2] was 334 nM and the IC50 [3] was 36 nM.

For `Cc1cc(-c2[nH]c3ccc(C(=O)NC4CCN(C(C)C)CC4)cc3c2C(C)C)ccn1` [Example 113, 3-isopropyl-N-(1-isopropylpiperidin-4-yl)-2-(2-methylpyridin-4-yl)-1H-indole-5-carboxamide], the IC50 [1] was 50 nM, the IC50 [2, 4] was 1270 nM and the IC50 [3, 5] was 0.8 nM.

Work on `Cc1cc(-c2[nH]c3ccc(C(=O)N4CCCN(C)CC4)cc3c2C(C)C)ccn1` [Example 114, (3-isopropyl-2-(2-methylpyridin-4-yl)-1H-indol-5-yl)(4-methyl-1,4-diazepan-1-yl)methanone] yielded an IC50 [1] of 135 nM, an IC50 [2, 4] of 3630 nM and an IC50 [3, 5] of 2.4 nM.

`Cc1cc(-c2[nH]c3ccc(C(=O)N4CC5CN(C)CC5C4)cc3c2C(C)C)ccn1` (stereo not drawn) [Example 115, (3-isopropyl-2-(2-methylpyridin-4-yl)-1H-indol-5-yl)(5-methylhexahydropyrrolo[3,4-c]pyrrol-2(1H)-yl)methanone] gave an IC50 [1] of 147 nM, an IC50 [2, 4] of 1580 nM and an IC50 [3, 5] of 3.5 nM.

For `Cc1cc(-c2[nH]c3ccc(C(=O)N4CC5CN(C(C)C)CC5C4)cc3c2C(C)C)ccn1` (stereo not drawn) [Example 116, (3-isopropyl-2-(2-methylpyridin-4-yl)-1H-indol-5-yl)(5-isopropylhexahydropyrrolo[3,4-c]pyrrol-2(1H)-yl)methanone], the IC50 [1] was 117 nM, the IC50 [2, 4] was 985 nM and the IC50 [3, 5] was 3.6 nM.

In the case of `Cc1cc(-c2[nH]c3ccc(C(=O)N4CC5CN(CC(=O)N(C)C)CC5C4)cc3c2C(C)C)ccn1` (stereo not drawn) [Example 117, 2-(5-(3-isopropyl-2-(2-methylpyridin-4-yl)-1H-indole-5-carbonyl)hexahydropyrrolo[3,4-c]pyrrol-2(1H)-yl)-N,N-dimethylacetamide], the IC50 [1] is reported as 730 nM, the IC50 [2, 4] is reported as 3700 nM and the IC50 [3, 5] is reported as 20 nM.

`CNC(=O)CN1CC2CN(C(=O)c3ccc4[nH]c(-c5ccnc(C)c5)c(C(C)C)c4c3)CC2C1` (stereo not drawn) [Example 118, 2-(5-(3-isopropyl-2-(2-methylpyridin-4-yl)-1H-indole-5-carbonyl)hexahydropyrrolo[3,4-c]pyrrol-2(1H)-yl)-N-methylacetamide] gave an IC50 [1] of 4050 nM, an IC50 [2, 4] of 22700 nM and an IC50 [3, 5] of 165 nM.

For `CNCC(=O)N1CC2CN(C(=O)c3ccc4[nH]c(-c5ccnc(C)c5)c(C(C)C)c4c3)CC2C1` (stereo not drawn) [Example 119, 1-(5-(3-isopropyl-2-(2-methylpyridin-4-yl)-1H-indole-5-carbonyl)hexahydropyrrolo[3,4-c]pyrrol-2(1H)-yl)-2-(methylamino)ethanone], the IC50 [1] was 2610 nM, the IC50 [2, 4] was 2230 nM and the IC50 [3, 5] was 226 nM.
